*1 amine or outer side, *2 acyl side, *3 side chain or, on linkers, in order; H or OH if unused. Primed or numbered codes have the meaning given here. Where no end group is shown, it is not given here. Side-chain parts run from the residue outwards. [ ]: non-standard residue; d: D form. The star is where a group is joined. C20 diacid = O=C(O)CCCCCCCCCCCCCCCCCCC(=O)*; γGlu = O=C(O)[C@H](CCC(=O)[*:2])N[*:1]; Iva = CC[C@](C)(N)C(=O)O; PEG2′ = not defined here; Aib = CC(C)(N)C(=O)O
How the values were obtained:
db/db diabetic mice [1] = experiment: Treatment of 12-week-old db/db diabetic mice: blood glucose, OGTT, ITT, ALT/AST, diabetic nephropathy indices; type: in vivo; details: for weekly blood glucose (hypoglycemic effect): FIG. 4A, blood glucose at normal levels at week 1; for weekly blood glucose (hypoglycemic effect) / improving oral glucose tolerance (OGTT) / improving insulin resistance (ITT) / ALT and AST in serum (hepatoprotective function): 120 μg/kg s.c. daily; for improving oral glucose tolerance (OGTT): FIG. 4B, week 4; for improving insulin resistance (ITT): FIG. 4C, week 5; for ALT and AST in serum (hepatoprotective function): FIG. 4D; for H&E staining of kidneys: glomerular adhesion, ameliorative and therapeutic effects: FIG. 5B; for H&E staining of kidneys: glomerular adhesion, ameliorative and therapeutic effects / PAS staining of kidneys: ameliorative effects on glomerular mesangial region / collagen content (Sirius red, FN and α-SMA staining of kidneys): after 8 weeks; for H&E staining of kidneys: glomerular adhesion, ameliorative and therapeutic effects / collagen content (Sirius red, FN and α-SMA staining of kidneys): compared to semaglutide, SAR425899 and MED C18-acid groups; for PAS staining of kidneys: ameliorative effects on glomerular mesangial region: FIG. 5C; for collagen content (Sirius red, FN and α-SMA staining of kidneys): FIGS. 5D to 5F
Experimental: Normal mice born in the same litter; DC group: db/db mice control group). Blood glucose and body weight were measured on alternate days after daily administration of the medicament, and water intake and food intake were measured once a week. OGTT was measured at week 4, insulin tolerance (ITT) was measured at week 5, metabolism of mice was examined using mouse metabolic cages at weeks 6-7, and various serological and pathological indices were taken at week 8.
Type 2-diabetes mice were characterized by obesity, insulin resistance, hyperglycemia, dyslipidemia and hepatic fat vacuole-like degeneration.
After 6 weeks of medical treatment, the mice was collected for urine using metabolic cages, and the protein content in the urine was detected using relevant kits. After 7 weeks of medical treatment, the material was taken and blood was used to detect serological indicators such as blood creatinine and urea nitrogen.

C57BL/6J mice = experiment: Oral glucose tolerance (OGTT), repeated glucose loads followed to 24 h after one s.c. dose; type: in vivo; details: four OGTT curves (0-22 h); 100 μg/kg subcutaneously
Experimental: Eight-week-old male C57BL/6J mice (Model Animal Research Center, Nanjing University) were randomly grouped according to similar blood glucose (assessed by blood samples obtained from the tail tip), with six mice in each group. […] The initial blood samples (fasted blood glucose levels) were obtained after about 4 h. Subsequently, an oral dose of glucose (2 g/kg) was administered and the animals were placed back in their holding cages (t=0). […] The oral dose of glucose was then repeated at 8 h of administration, 12 h of administration and […], and blood glucose changes were detected and followed until 24 hours. The data were processed using the software GraphPadPrism to make a line graph of blood glucose changes, and the area under the curve was calculated to obtain an AUC graph, and the results are shown in FIG. 1.

db/db diabetic mice [2] = experiment: Dose determination in 8-week-old db/db diabetic mice: blood glucose and body weight; type: in vivo; details: for body weight (weight-lowering effect) / weight-lowering effect relative to compounds 3 and 8 / blood glucose (glucose-lowering effect): FIG. 3A, daily s.c.; for effect relative to polypeptide compounds 3 and 8 / overall hypoglycemic effect / blood glucose (hypoglycemic effect) / subsequent blood glucose course (long-lasting effect): FIG. 3B, every other day s.c.; for subsequent blood glucose course (long-lasting effect): from day 3 / after days 3-5
Experimental: The db/db mice diabetic model (purchased from Nanjing University-Nanjing Institute of Biomedical Research, about 8 weeks, and blood glucose and body weight were measured to ensure the smooth subsequent experiments) was obtained, and the model mice were randomly divided into 12 groups (including polypeptide compounds 3, 8, 13, 15, semaglutide and physiological saline groups), with 6 mice in each group and no difference in basal body weight and blood glucose. Each group was injected subcutaneously with compound 3 (80 and 120 μg/kg, 2 groups), compound 8 (80 and 120 μg/kg, 2 groups), compound 13 (80 and 120 μg/kg, 2 groups), compound 15 (80 and 120 μg/kg, 2 groups), semaglutide (80 and 120 μg/kg, 2 groups) and physiological saline (DN group: normal mice born in the same litter; DC group: db/db mice control group) every day or every other day.
Blood glucose and body weight of mice were measured after daily administration and 6 h fasting on alternate days.

FN protein (fibronectin) = experiment: Western blot of FN protein in high glucose-induced in vitro renal fibrosis cell model; type: cell-based, rat; details: 10 μM; 30 mmol/L glucose; 48 h; mesangial and renal epithelial cells
Description: Hyperglycemia and increased production of glycosylation end products will cause morphological changes such as proliferation and hypertrophy of glomerular mesangial cells, increase in extracellular matrix (ECM) and mesangial expansion, which will eventually lead to the loss of its physiological function. […] Therefore, this example used high glucose to induce MCS mesangial cells and NRK renal epithelial cells to construct an in vitro renal fibrosis cell model for screening medicaments useful for the treatment of diabetic nephropathy. The renal mesangial cell strain GMC and glomerular epithelial cells mTEC used in this example were both cells kept in the applicant's laboratory (both were extracted from rat renal primary cells) and cultured in low sugar medium containing 10% fetal bovine serum. The cells were starved with serum-free culture medium for 24 h when grew to 70% confluence. The cells were divided into the following 9 groups by adjusting the glucose concentration as follows: […]

| Substance | weekly blood glucose (hypoglycemic effect) (db/db diabetic mice [1]) | improving oral glucose tolerance (OGTT) (db/db diabetic mice [1]) | improving insulin resistance (ITT) (db/db diabetic mice [1]) | ALT and AST in serum (hepatoprotective function) (db/db diabetic mice [1]) | H&E staining of kidneys: glomerular adhesion, ameliorative and therapeutic effects (db/db diabetic mice [1]) | PAS staining of kidneys: ameliorative effects on glomerular mesangial region (db/db diabetic mice [1]) | collagen content (Sirius red, FN and α-SMA staining of kidneys) (db/db diabetic mice [1]) | long-acting hypoglycemic effects compared to semaglutide (C57BL/6J mice) | body weight (weight-lowering effect) (db/db diabetic mice [2]) | weight-lowering effect relative to compounds 3 and 8 (db/db diabetic mice [2]) | blood glucose (glucose-lowering effect) (db/db diabetic mice [2]; 80 μg/kg) | blood glucose (glucose-lowering effect) (db/db diabetic mice [2]; 120 μg/kg, vs saline DC group) | effect relative to polypeptide compounds 3 and 8 (db/db diabetic mice [2]) | overall hypoglycemic effect (db/db diabetic mice [2]) | blood glucose (hypoglycemic effect) (db/db diabetic mice [2]; 80 μg/kg) | blood glucose (hypoglycemic effect) (db/db diabetic mice [2]; 120 μg/kg) | subsequent blood glucose course (long-lasting effect) (db/db diabetic mice [2]; 120 μg/kg) | FN protein expression (Western blot) (FN protein (fibronectin)) |
| --- | --- | --- | --- | --- | --- | --- | --- | --- | --- | --- | --- | --- | --- | --- | --- | --- | --- | --- |
| His-(D-Ser)-Gln-Gly-Thr-Phe-Thr-Ser-Asp-Lys(Gly-Gly-Ser-Gly-Ser-Gly-γGlu-CO(CH2)18-COOH)-Ser-Lys-Tyr-Leu-Glu-Aib-Lys-Ala-Ala-Gln-Asp-Phe-Val-Glu-Trp-Leu-Lys-Ala-Gly-Gly-Pro-Ser-Ser-Gly-Ala-Pro-Pro-Pro-Ser (H[dS]QGTFTSDKSKYLE[Aib]KAAQDFVEWLKAGGPSSGAPPPS; not fully specified (residue 10, C-terminus)) [Compound 13] | significant hypoglycemic effects | performed more excellent | performed more excellent | more excellent hepatoprotective functions | more significant | more significant | improved more significantly | superior and significant long-acting hypoglycemic effects | better weight-lowering effect | superior to that of compounds 3 and 8 | significant glucose-lowering effect with long-lasting effect | good glucose-lowering effect in 3-5 days | better than that of polypeptide compounds 3 and 8 | more excellent hypoglycemic effect | significant hypoglycemic effect on day 3, but the subsequent blood glucose level did not change much and tended to be stable | good hypoglycemic effect on days 3-5 | kept good hypoglycemic effect | inhibited FN expression more significantly |
| His-(D-Ser)-Gln-Gly-Thr-Phe-Thr-Ser-Asp-Lys(PEG2-PEG2-γGlu-CO(CH2)18CO2H)-Ser-Lys-Tyr-Leu-Glu-Aib-Lys-Ala-Ala-Gln-Asp-Phe-Val-Glu-Trp-Leu-Lys-Ala-Gly-Gly-Pro-Ser-Ser-Gly-Ala-Pro-Pro-Pro-Ser-NH2 (H[dS]QGTFTSDK([PEG2′-PEG2′-γGlu-C20 diacid])SKYLE[Aib]KAAQDFVEWLKAGGPSSGAPPPS-NH2) [Compound 3] | significant hypoglycemic effects | performed more excellent | performed more excellent | more excellent hepatoprotective functions | more significant | more significant | improved more significantly | superior and significant long-acting hypoglycemic effects | better weight-lowering effect | – | significant glucose-lowering effect | good glucose-lowering effect in 3-5 days | – | more excellent hypoglycemic effect | first decrease and then increase, and the overall hypoglycemic effect was significant | good hypoglycemic effect on days 3-5 | the blood glucose did not change much | inhibited FN expression more significantly |
| His-Aib-Gln-Gly-Thr-Phe-Thr-Ser-Asp-Lys(Gly-Gly-Ser-Gly-Ser-Gly-γGlu-CO(CH2)18-COOH)-Ser-Lys-Tyr-Leu-Asp-Glu-Arg-Ala-Ala-Gln-Asp-Phe-Iva-Gln-Trp-Leu-Leu-Asp-Gly-Gly-Pro-Ser-Ser-Gly-Aib-Pro-Pro-Pro-Ser (H[Aib]QGTFTSDKSKYLDERAAQDF[Iva]QWLLDGGPSSG[Aib]PPPS; not fully specified (residue 10, C-terminus)) [Compound 15] | significant hypoglycemic effects | performed more excellent | performed more excellent | more excellent hepatoprotective functions | more significant | more significant | improved more significantly | superior and significant long-acting hypoglycemic effects | better weight-lowering effect | superior to that of compounds 3 and 8 | significant glucose-lowering effect with long-lasting effect | good glucose-lowering effect in 3-5 days | better than that of polypeptide compounds 3 and 8 | more excellent hypoglycemic effect | significant hypoglycemic effect on day 3, but the subsequent blood glucose level did not change much and tended to be stable | good hypoglycemic effect on days 3-5 | kept good hypoglycemic effect | inhibited FN expression more significantly |
| His-Aib-Gln-Gly-Thr-Phe-Thr-Ser-Asp-Lys(PEG2-PEG2-γGlu-CO(CH2)18CO2H)-Ser-Lys-Tyr-Leu-Asp-Glu-Arg-Ala-Ala-Gln-Asp-Phe-Iva-Gln-Trp-Leu-Leu-Asp-Gly-Gly-Pro-Ser-Ser-Gly-Aib-Pro-Pro-Pro-Ser-NH2 (H[Aib]QGTFTSDK([PEG2′-PEG2′-γGlu-C20 diacid])SKYLDERAAQDF[Iva]QWLLDGGPSSG[Aib]PPPS-NH2) [Compound 8] | significant hypoglycemic effects | performed more excellent | performed more excellent | more excellent hepatoprotective functions | more significant | more significant | improved more significantly | superior and significant long-acting hypoglycemic effects | better weight-lowering effect | – | significant glucose-lowering effect | good glucose-lowering effect in 3-5 days | – | more excellent hypoglycemic effect | first decrease and then increase, and the overall hypoglycemic effect was significant | good hypoglycemic effect on days 3-5 | the blood glucose did not change much | inhibited FN expression more significantly |

Source: patent US20230183310A1, “Polypeptide Compounds and Use Thereof in the Prevention or Treatment of Diabetes or Diabetic Complications” (Shenzhen Turier Biotech Co., Ltd., priority 2020, published 2023)
